Measured values from patent US7022856B2, “Carboline derivatives” (LIlly Icos LLC., priority 2001, dated 2006).

Target: T1, human recombinant PDE5 (Homo sapiens, UniProt O76074)
T1 construct: host or cells: Saccharomyces cerevisiae strain BJ2-54 (ATCC 74465)
Assay: cGMP-PDE inhibition, one-step assay with human recombinant PDE5
Format: biochemical
Details: 0.15 μM 8-[H3]-cGMP, 30 min
Experimental: The compounds of structural formula (I) were tested for an ability to inhibit PDE5. The ability of a compound to inhibit PDE5 activity is related to the IC50 value for the compound, i.e., the concentration of inhibitor required for 50% inhibition of enzyme activity. The IC50 value for compounds pounds of structural formula (I) were determined using recombinant human PDE5.
Recombinant production of human PDE1B, PDE2, PDE4A, PDE4B, PDE4C, PDE4D, PDE5, and PDE7 was carried out similarly to that described in Example 7 of U.S. Pat. No. 5,702,936, incorporated herein by reference, except that the yeast transformation vector employed, which is derived from the basic ADH2 plasmid described in Price et al., Methods in Enzymology, 185, pp. 308–318 (1990), incorporated yeast ADH2 promoter and terminator sequences and the Saccharomyces cerevisiae host was the protease-deficient strain BJ2-54 deposited on Aug. 31, 1998 with the American Type Culture Collection, Manassas, Va., under accession number ATCC 74465. Transformed host cells were grown in 2×SC-leu medium, pH 6.2, with trace metals, and vitamins. After 24 hours, YEP medium-containing glycerol was added to a final concentration of 2×YET/3% glycerol. Approxiately 24 hr later, cells were harvested, washed, and stored at −70° C. […]
Cell pellets (29 g) were thawed on ice with an equal volume of Lysis Buffer (25 mM Tris HCl, pH 8, 5 mM MgCl2, 0.25 mM DTT, 1 mM benzamidine, and 10 μM ZnSO4). Cells were lysed in a Microfluidizer® (Microfluidics Corp.) using nitrogen at 20,000 psi. The lysate was centrifuged and filtered through 0.45 μm disposable filters. The filtrate was applied to a 150 mL column of Q SEPHAROSE® Fast-Flow (Pharmacia). The column was washed with 1.5 volumes of Buffer A (20 mM Bis-Tris Propane, pH 6.8, 1 mM MgCl2, 0.25 mM DTT, 10 μM ZnSO4) and eluted with a step gradient of 125 mM NaCl in Buffer A followed by a linear gradient of 125–1000 mM NaCl in Buffer A. Active fractions from the linear gradient were applied to a 180 mL hydroxyapatite column in Buffer B (20 mM Bis-Tris Propane (pH 6.8), 1 mM MgCl2, 0.25 mM DTT, 10 μM ZnSO4, and 250 mM KCl). After loading, the column was washed with 2 volumes of Buffer B and eluted with a linear gradient of 0–125 mM potassium phosphate in Buffer B. Active fractions were pooled, precipitated with 60% ammonium sulfate, and resuspended in Buffer C (20 mM Bis-Tris Propane, pH 6.8, 125 mM NaCl, 0.5 mM DTT, and 10 μM ZnSO4). The pool was applied to a 140 mL column of SEPHACRYL® S-300 HR and eluted with Buffer C. Active fractions were diluted to 50% glycerol and stored at −20° C.
cGMP-PDE activity of compounds of the present invention was measured using a one-step assay adapted from Wells et al., Biochim. Biophys. Acta, 384, 430 (1975). The reaction medium contained 50 mM Tris-HCl, pH 7.5, 5 mM magnesium acetate. 250 μg/ml 5′-Nucleotidase, 1 mM EGTA, and 0.15 μM 8-[H^3]-cGMP. Unless otherwise indicated, the enzyme used was a human recombinant PDE5 (ICOS Corp., Bothell, Wash.).
Compounds of the invention were dissolved in DMSO finally present at 2% in the assay.

For `CNc1ccc(C(=O)N2CCc3c([nH]c4ccccc34)C2c2ccc3c(c2)OCO3)cc1` (stereo not drawn) [Example 5, 1-(1-Benzo[1,3]dioxol-5-yl-1,3,4,9-tetrahydro-β-carbolin-2-yl)-1-(4-methylaminophenyl)methanone], the IC50 was 200 nM.
For `CN(C)c1ccc(C(=O)N2CCc3c([nH]c4ccccc34)C2c2ccc3c(c2)OCO3)cc1` (stereo not drawn) [Example 6, 1-(1-Benzo[1,3]dioxol-5-yl-1,3,4,9-tetrahydro-β-carbolin-2-yl)-1-(4-dimethylaminophenyl)methanone], the IC50 was 670 nM.
`NC(=O)c1ccc(C(=O)N2CCc3c([nH]c4ccccc34)C2c2ccc3c(c2)OCO3)cc1` (stereo not drawn) [Example 7, 4-[1-(1-Benzo[1,3]dioxol-5-yl-1,3,4,9-tetrahydro-β-carbolin-2-yl)methanoyl]benzamide] was tested, and the IC50 was 550 nM.
With `O=C(C#Cc1ccccc1)N1CCc2c([nH]c3ccccc23)C1c1ccc2c(c1)OCO2` (stereo not drawn) [Example 8, 1-(1-Benzo[1,3]dioxol-5-yl-1,3,4,9-tetrahydro-β-carbolin-2-yl)-3-phenylpropynone] the IC50 was 190 nM.
For `Nc1ccccc1CCC(=O)N1CCc2c([nH]c3ccccc23)C1c1ccc2c(c1)OCO2` (stereo not drawn) [Example 9, 3-(2-Aminophenyl)-1-(1-benzo[1,3]dioxol-5-yl-1,3,4,9-tetrahydro-β-carbolin-2-yl)propan-1-one], the IC50 was 440 nM.
In the case of `O=C(Cc1ccccc1)Nc1ccc(C(=O)N2CCc3c([nH]c4ccccc34)C2c2ccc3c(c2)OCO3)cc1` (stereo not drawn) [Example 10, N-{4-[1-(1-Benzo[1,3]dioxol-5-yl-1,3,4,9-tetrahydro-β-carbolin-2-yl)methanoyl]phenyl}-2-phenylacetamide], the IC50 is reported as 760 nM.
Compound `O=C(CCc1ccccc1)N1CCc2c([nH]c3ccccc23)C1c1ccc2c(c1)OCO2` (stereo not drawn) [Example 11, 1-(1-Benzo[1,3]dioxol-5-yl-1,3,4,9-tetrahydro-β-carbolin-2-yl)-3-phenylpropan-1-one] has an IC50 of 440 nM.
For `O=C(/C=C/c1cccc(CCC(=O)N2CCc3c([nH]c4ccccc34)C2c2ccc3c(c2)OCO3)c1)N1CCc2c([nH]c3ccccc23)C1c1ccc2c(c1)OCO2` (centres unmarked) [Example 13a], the IC50 was 480 nM.
Compound `O=C(/C=C/c1ccc(CCC(=O)N2CCc3c([nH]c4ccccc34)C2c2ccc3c(c2)OCO3)cc1)N1CCc2c([nH]c3ccccc23)C1c1ccc2c(c1)OCO2` (centres unmarked) [Example 13b] has an IC50 of 20 nM.
`O=C(c1ccc(-c2cccnc2)s1)N1CCc2c([nH]c3ccccc23)C1c1ccc2c(c1)OCO2` (centres unmarked) [Example 18] gave an IC50 of 110 nM.
Work on `O=C(c1ccc(-c2ccccc2)s1)N1CCc2c([nH]c3ccccc23)C1c1ccc2c(c1)OCO2` (centres unmarked) [Example 19] yielded an IC50 of 250 nM.
`COc1ccc(C2c3[nH]c4ccccc4c3CCN2C(=O)c2cc3ccccc3s2)cc1Cl` (centres unmarked) [Example 20] gave an IC50 of 420 nM.
Work on `O=C(c1cc2cc([N+](=O)[O-])ccc2s1)N1CCc2c([nH]c3ccccc23)C1c1ccc2c(c1)OCO2` (centres unmarked) [Example 21] yielded an IC50 of 130 nM.
Work on `Nc1ccc2sc(C(=O)N3CCc4c([nH]c5ccccc45)C3c3ccc4c(c3)OCO4)cc2c1` (centres unmarked) [Example 22] yielded an IC50 of 80 nM.
`O=C(Cc1csc2ccccc12)N1CCc2c([nH]c3ccccc23)C1c1ccc2c(c1)OCO2` (stereo not drawn) [Example 23, 2-Benzo[b]thiophen-3-yl-1-(1-benzo[1,3]dioxol-5-yl-1,3,4,9-tetrahydro-β-carbolin-2-yl)ethanone] gave an IC50 of 360 nM.
Work on `CC(=O)Nc1ccc2sc(C(=O)N3CCc4c([nH]c5ccccc45)C3c3ccc4c(c3)OCO4)cc2c1` (centres unmarked) [Example 24] yielded an IC50 of 30 nM.
Work on `O=C(CCl)Nc1ccc2sc(C(=O)N3CCc4c([nH]c5ccccc45)C3c3ccc4c(c3)OCO4)cc2c1` (centres unmarked) [Example 25] yielded an IC50 of 40 nM.
With `O=C(c1ccsc1)N1CCc2c([nH]c3ccccc23)C1c1ccc2c(c1)OCO2` (centres unmarked) [Example 26] the IC50 was 900 nM.
For `O=C(CN1CCOCC1)Nc1ccc2sc(C(=O)N3CCc4c([nH]c5ccccc45)C3c3ccc4c(c3)OCO4)cc2c1` (centres unmarked) [Example 27], the IC50 was 40 nM.
For `CN1CCN(CC(=O)Nc2ccc3sc(C(=O)N4CCc5c([nH]c6ccccc56)C4c4ccc5c(c4)OCO5)cc3c2)CC1` (centres unmarked) [Example 28], the IC50 was 120 nM.
`O=C(CN1CCCCC1)Nc1ccc2sc(C(=O)N3CCc4c([nH]c5ccccc45)C3c3ccc4c(c3)OCO4)cc2c1` (centres unmarked) [Example 29] was tested, and the IC50 was 300 nM.
Compound `COC(=O)CC(=O)Nc1ccc2sc(C(=O)N3CCc4c([nH]c5ccccc45)C3c3ccc4c(c3)OCO4)cc2c1` (centres unmarked) [Example 30] has an IC50 of 60 nM.
Work on `O=C(Cn1ccnc1)Nc1ccc2sc(C(=O)N3CCc4c([nH]c5ccccc45)C3c3ccc4c(c3)OCO4)cc2c1` (centres unmarked) [Example 31] yielded an IC50 of 40 nM.
Compound `O=C(c1cc2cccc(Br)c2s1)N1CCc2c([nH]c3ccccc23)C1c1ccc2c(c1)OCO2` (centres unmarked) [Example 32] has an IC50 of 480 nM.
`O=C(c1cc2c([N+](=O)[O-])cccc2s1)N1CCc2c([nH]c3ccccc23)C1c1ccc2c(c1)OCO2` (centres unmarked) [Example 33] gave an IC50 of 200 nM.
With `O=C(c1ccc([N+](=O)[O-])s1)N1CCc2c([nH]c3ccccc23)C1c1ccc2c(c1)OCO2` (centres unmarked) [Example 34] the IC50 was 460 nM.
For `O=C(c1cc2c(Br)cccc2s1)N1CCc2c([nH]c3ccccc23)C1c1ccc2c(c1)OCO2` (centres unmarked) [Example 35], the IC50 was 410 nM.
With `CC(=O)c1ccc(C(=O)N2CCc3c([nH]c4ccccc34)C2c2ccc3c(c2)OCO3)s1` (centres unmarked) [Example 36] the IC50 was 110 nM.
With `COc1ccc2cc(C(=O)N3CCc4c([nH]c5ccccc45)C3c3ccc4c(c3)OCO4)sc2c1` (centres unmarked) [Example 37] the IC50 was 40 nM.
With `COc1ccc2sc(C(=O)N3CCc4c([nH]c5ccccc45)C3c3ccc4c(c3)OCO4)cc2c1` (centres unmarked) [Example 38] the IC50 was 30 nM.
With `O=C(c1ccc(CN2CCOCC2)s1)N1CCc2c([nH]c3ccccc23)C1c1ccc2c(c1)OCO2` (centres unmarked) [Example 39] the IC50 was 400 nM.
Compound `COCc1ccc(C(=O)N2CCc3c([nH]c4ccccc34)C2c2ccc3c(c2)OCO3)s1` (centres unmarked) [Example 40] has an IC50 of 320 nM.
`CN(C)CC(=O)Nc1ccc(C(=O)N2CCc3c([nH]c4ccccc34)C2c2ccc3c(c2)OCO3)o1` (centres unmarked) [Example 41] showed an IC50 of 240 nM.
With `CN(C)Cc1ccc(C(=O)N2CCc3c([nH]c4ccccc34)C2c2ccc3c(c2)OCO3)s1` (centres unmarked) [Example 42] the IC50 was 850 nM.
`CN(C)Cc1ccc2sc(C(=O)N3CCc4c([nH]c5ccccc45)C3c3ccc4c(c3)OCO4)cc2c1` (centres unmarked) [Example 43] was tested, and the IC50 was 290 nM.
Compound `Nc1ccc(C(=O)N2CCc3c([nH]c4ccccc34)C2c2ccc3c(c2)OCO3)s1` (centres unmarked) [Example 44] has an IC50 of 490 nM.
`COc1cc2nc(N3CCc4c([nH]c5ccccc45)C3c3ccc4c(c3)OCO4)[nH]c(=O)c2cc1OC` (stereo not drawn) [Example 46, 2-(1-Benzo[1,3]dioxol-5-yl-1,3,4,9-tetrahydro-β-carbolin-2-yl) -6,7-dimethoxy-3H-quinazolin-4-one] was tested, and the IC50 was 5 nM.
`COc1cc2nc(N3CCc4c([nH]c5ccccc45)C3c3ccc4c(c3)OCO4)nc(Cl)c2cc1OC` (stereo not drawn) [Example 47a, 1-Benzo[1,3]dioxol-5-yl-2-(4-chloro-6,7-dimethoxyquinazolin-2-yl)-2,3,4,9-tetrahydro-1H-β-carboline] was tested, and the IC50 was 27 nM.
`COc1cc2cnc(N3CCc4c([nH]c5ccccc45)C3c3ccc4c(c3)OCO4)nc2cc1OC` (stereo not drawn) [Example 47b, 1-Benzo[1,3]dioxol-5-yl-2-(6,7-dimethoxyquinazolin-2-yl)-2,3,4,9-tetrahydro-1H-β-carboline] was tested, and the IC50 was 5 nM.
`O=C(O)CC(=O)Nc1ccc2sc(N3CCc4c([nH]c5ccccc45)C3c3ccc4c(c3)OCO4)cc2c1` (centres unmarked) [Example 48] was tested, and the IC50 was 20 nM.
For `COc1ccc(-c2ccnc(N3CCc4c([nH]c5ccccc45)C3c3ccc4c(c3)OCO4)n2)cc1` (centres unmarked) [Example 49], the IC50 was 10 nM.
With `c1cnc(N2CCc3c([nH]c4ccccc34)C2c2ccc3c(c2)OCO3)nc1` (centres unmarked) [Example 50] the IC50 was 780 nM.
With `c1ccc(-c2ccnc(N3CCc4c([nH]c5ccccc45)C3c3ccc4c(c3)OCO4)n2)cc1` (centres unmarked) [Example 51] the IC50 was 30 nM.
`c1ccc(-c2ccnc(N3CCc4c([nH]c5ccccc45)C3c3ccccc3)n2)cc1` (centres unmarked) [Example 52] was tested, and the IC50 was 290 nM.
